Reference: patent publication US4233403A, “Amylase assay” (E. I. Du Pont de Nemours and Company, priority 1978, dated 1980)
“And” between values parts separate entries of the source, which are not always exact repeats. Equal values may be shown once.

Columns and labels:
α-glucosidase = assay: blank rate: release of 4-nitrophenol from the substrate by the maltase without amylase; assay type: biochemical
Text: When a maltase, such as α-glucosidase is used, a side reaction which gives rise to a blank rate occurs because of the reactivity of the maltase with the substrate. This means that even in the absence of α-amylase, there will be release of the phenol. Since the maximum velocity of product release from maltase decreases with increasing n, the growth of a blank rate is slower as n increases. One would expect, then, that the blank rate for G5 would be less than that for G4. This is verified by experimentation. However, an additional factor is involved in the choice between higher and lower oligosaccharides (i.e., G4 or G5) as the substrate. In all reactions of the substrate with amylase and reactions of maltase with the substrate, the rate increases, as a function of substrate concentration, to an optimum, at which point it levels off. The substrate concentration at which optimization occurs appears to increase with increasing n so that more of the substrate (and the maltase) must be used to optimize (linearize) the standard curve. For expensive chemicals, this is an important consideration.
A sample of α-(4-nitrophenyl) maltotetraoside (G4 pNp) prepared in accordance with Example 1H of U.S. Patent Application Ser. No. 704,975, filed on the same day as this application, was dissolved in 66.7 mM sodium phosphate buffer, pH 6.5, to provide various substrate concentrations ranging from 2 to 8 mg/3 ml. […]
After the blank rate was measured at 410 nm, using a Gilford spectrophotometer, the reaction was initiated by adding 0.1 ml of an Elevated Enzyme Control Product sold by the E. I. du Pont de Nemours and Company (1150 Somogyi Units per deciliter (SU/dl) amylase) diluted 1:1 with Du Pont Enzyme Diluent. […] The total reaction rate was then measured using the Gilford spectrophotometer, and by subtracting the blank rate from the total rate, the net reaction rate was obtained. […]
After the blank rate was measured, as described in Example 1 above, the reaction was […] by adding 0.1 ml of Du Pont Elevated Enzyme Control Product, diluted 1:1 with Du Pont Enzyme Diluent. The reaction rates for various amylase sample concentrations were measured as discussed in Example 1 above, and a standard curve was generated. From this curve, the sensitivity in mA/min/SU/dl was measured. […]
After the blank rate was measured in a Gilford spectrophotometer at 410 nm, the reaction was initiated by adding 0.1 ml of the Du Pont Elevated Enzyme Control Product, diluted 1:1 with Du Pont Enzyme Diluent. The reaction rates for the various amylase sample concentrations were measured, using the Gilford spectrophotometer, and a standard curve was generated. From this curve, the sensitivity in mA/min/SU/dl was measured. […]

α-amylase [1] = assay: amylase assay with nitrophenyl oligosaccharide substrate plus α-glucosidase, rate at 410 nm, standard curve; assay type: biochemical; settings: for Sensitivity: 4 mg/3 ml G4 pNp, 7.5 IU/3 ml α-glucosidase, pH 6.5, 37° C., 410 nm, from standard curve
Protocol: A sample of α-(4-nitrophenyl) maltotetraoside (G4 pNp) prepared in accordance with Example 1H of U.S. Patent Application Ser. No. 704,975, filed on the same day as this application, was dissolved in 66.7 mM sodium phosphate buffer, pH 6.5, to provide various substrate concentrations ranging from 2 to 8 mg/3 ml. As described in U.S. Ser. No. 704,975, this substrate sample has been purified using a Sephadex® LH-20 Chromatographic Column. α-Glucosidase of various concentrations ranging from 2.5 to 12.5 International Units per three milliliters of solution (IU/3 ml) was then added to the substrate solution and the volume of the solution was brought up to 3.0 ml. The solution was incubated at 37° C. for 1 to 10 minutes.
After the blank rate was measured at 410 nm, using a Gilford spectrophotometer, the reaction was initiated by adding 0.1 ml of an Elevated Enzyme Control Product sold by the E. I. du Pont de Nemours and Company (1150 Somogyi Units per deciliter (SU/dl) amylase) diluted 1:1 with Du Pont Enzyme Diluent. This level of amylase is approximately six times the upper normal serum level. The total reaction rate was then measured using the Gilford spectrophotometer, and by subtracting the blank rate from the total rate, the net reaction rate was obtained.
Using these optimum values of G4 pNp and α-glucosidase in a reaction solution of 3 ml, the reaction rates for various amylase sample concentrations were measured and a standard curve was generated. From this curve, the sensitivity in mA/min/SU/dl was measured. The standard curve for this sample is given in FIG. 1; the blank rate and sensitivity are given for this and other examples in Table II.
(§1) The G4 pNp so formed was dissolved in 66.7 mM sodium phosphate buffer, pH 6.5, to provide a substrate concentration of 4 mg/3 ml. Then 7.5 IU/3 ml of α-glucosidase was added to the substrate solution and the volume of the solution was brought up to 3.0 ml. The solution was incubated at 37° C. for one to ten minutes.
After the blank rate was measured, as described in Example 1 above, the reaction was […] by adding 0.1 ml of Du Pont Elevated Enzyme Control Product, diluted 1:1 with Du Pont Enzyme Diluent. The reaction rates for various amylase sample concentrations were measured as discussed in Example 1 above, and a standard curve was generated. From this curve, the sensitivity in mA/min/SU/dl was measured.
as §1, with “A sample of α-(4-nitrophenyl) maltotetraoside, prepared in accordance with Example 1G of U.S. Patent Application Ser. No. 704,975,” for “The G4 pNp so formed”
After the blank rate was measured in a Gilford spectrophotometer at 410 nm, the reaction was initiated by adding 0.1 ml of the Du Pont Elevated Enzyme Control Product, diluted 1:1 with Du Pont Enzyme Diluent. The reaction rates for the various amylase sample concentrations were measured, using the Gilford spectrophotometer, and a standard curve was generated. From this curve, the sensitivity in mA/min/SU/dl was measured.
A sample of α-(4-nitrophenyl) maltopentaoside (G5 pNp), prepared in accordance with Example 2E of U.S. Patent Application Ser. No. 704,975, was dissolved in 66.7 mM sodium phosphate buffer, pH 6.5, to provide various substrate concentrations ranging from 4.0 to 12.0 mg/3 ml. α-Glucosidase of various activity ranging from 15 to 45 IU/3 ml was then added to the substrate solution and the volume of the solution was brought up to 3.0 ml. The solution was incubated at 37° C. for one to ten minutes.
Initial tests were conducted using 4.0 mg/3 ml G5 pNp and three α-glucosidase concentrations, 7.0, 14.0, and 28.0 IU/3 ml. […]

α-amylase [2] = assay: cleavage of α-(4-nitrophenyl)maltoside by α-amylase; assay type: biochemical, human
Protocol: A. P. Jansen and P. G. A. B. Wydeveld, Nature, 182, 525 (1958) postulate that α-(p-nitrophenyl)maltoside could be a substrate for an amylase assay. […] They reported: (1) Incubation of samples of human urine, saliva, duodenal contents and only incidentally serum with α-(p-nitrophenyl)maltoside at 37° for 16 hours produces 4-nitrophenol, identified spectrophotometrically by mixing the hydrolyzate with 0.02 N sodium hydroxide. (2) The hydrolysis was inhibited by protein precipitants such as 10% trichloroacetic acid and 0.5 N silver nitrate. […] In contrast to the teaching of Jansen et al., the method of this invention produces amylase analyses in one hour or less.

[3] = 4 mg/3 ml G4 pNp, 7.5 IU/3 ml α-glucosidase, 66.7 mM sodium phosphate pH 6.5, 37° C., 410 nm, no amylase

Structure (SMILES)	Blank Rate (α-glucosidase; [3])	Sensitivity (α-amylase [1])	also measured
O=[N+]([O-])c1ccc(O[C@H]2O[C@H](CO)[C@@H](O[C@H]3O[C@H](CO)[C@@H](O[C@H]4O[C@H](CO)[C@@H](O[C@H]5O[C@H](CO)[C@@H](O[C@H]6O[C@H](CO)[C@@H](O)[C@H](O)[C@H]6O)[C@H](O)[C@H]5O)[C@H](O)[C@H]4O)[C@H](O)[C@H]3O)[C@H](O)[C@H]2O)cc1 [G5 pNp, α-(4-nitrophenyl) maltopentaoside]	–	–	Blank Rate (α-glucosidase; 4.0 mg/3 ml G5 pNp, α-glucosidase 7.0, 14.0 and 28.0 IU/3 ml (each case), pH 6.5, 37° C.): 3.0 mA/min; Sensitivity (estimated, non-linear curves) (α-amylase [1]; 4.0 mg/3 ml G5 pNp, α-glucosidase 7.0, 14.0, 28.0 IU/3 ml): greater than 0.160 mA/min/IU/dl
O=[N+]([O-])c1ccc(O[C@H]2O[C@H](CO)[C@@H](O[C@H]3O[C@H](CO)[C@@H](O[C@H]4O[C@H](CO)[C@@H](O[C@H]5O[C@H](CO)[C@@H](O)[C@H](O)[C@H]5O)[C@H](O)[C@H]4O)[C@H](O)[C@H]3O)[C@H](O)[C@H]2O)cc1 [Example 4, α-(4-nitrophenyl) maltotetraoside]	3.0 mA/min	0.116 mA/min/SU/dl	–
O=[N+]([O-])c1ccc(O[C@H]2O[C@H](CO)[C@@H](O[C@H]3O[C@H](CO)[C@@H](O[C@H]4O[C@H](CO)[C@@H](O[C@H]5O[C@H](CO)[C@@H](O)[C@H](O)[C@H]5O)[C@H](O)[C@H]4O)[C@H](O)[C@H]3O)[C@H](O)[C@H]2O)cc1 [Example 3, α-(4-nitrophenyl) maltotetraoside]	10.3-13.3 mA/min and 10.3 to 13.3 mA/min	0.110 mA/min/SU/dl	increase in sensitivity, end point determination after quenching (α-amylase [1]; reaction quenched after five minutes with 0.2 M Na2CO3 or 0.002 N NaOH, versus rate assay at pH 6.5): five to ten fold
O=[N+]([O-])c1ccc(O[C@H]2O[C@H](CO)[C@@H](O[C@H]3O[C@H](CO)[C@@H](O[C@H]4O[C@H](CO)[C@@H](O[C@H]5O[C@H](CO)[C@@H](O)[C@H](O)[C@H]5O)[C@H](O)[C@H]4O)[C@H](O)[C@H]3O)[C@H](O)[C@H]2O)cc1 [Example 1, α-(4-nitrophenyl) maltotetraoside]	5.0 mA/min	0.115 mA/min/SU/dl	–
O=[N+]([O-])c1ccc(O[C@H]2O[C@H](CO)[C@@H](O[C@H]3O[C@H](CO)[C@@H](O)[C@H](O)[C@H]3O)[C@H](O)[C@H]2O)cc1 [α-(4-Nitrophenyl)maltoside]	–	–	cleavage of this compound by α-amylase (α-amylase [2]): extremely slow
O=[N+]([O-])c1ccc(O[C@H]2O[C@H](CO)[C@@H](O[C@H]3O[C@H](CO)[C@@H](O[C@H]4O[C@H](CO)[C@@H](O[C@H]5O[C@H](CO)[C@@H](O)[C@H](O)[C@H]5O)[C@H](O)[C@H]4O)[C@H](O)[C@H]3O)[C@H](O)[C@H]2O)cc1 [Example 2, α-(4-nitrophenyl) maltotetraoside]	–	0.231 mA/min/SU/dl	–
